{
  "source": "patent US7902261B2",
  "about": "“Medicinal compositions for preventing or treating viral myocarditis” (Mitsubishi Tanabe Pharma Corporation, priority 1999, dated 2011)",
  "key": {"TNF-α": {"tested_on": "TNF-α", "assay": "Intracardiac cytokine assay (ELISA), TNF-α", "format": "in vivo, mouse", "settings": "heart ventricle at day 5; CsA 40 mg/kg/day, compound 1 10 mg/kg/day orally; mean ± SEM; control 4.11 ± 0.11", "protocol": "(§1) Four-week-old male DBA/2 mice were divided into 3 groups and EMC virus (10 pfu) was intraperitoneally inoculated. After inoculation, distilled water (solvent, n=8) as a control, CsA (40 mg/kg/day, n=5), and compound 1 (10 mg/kg/day, n=7) were orally administered forcibly for 5 consecutive days using a probe. Five days later, the heart was aseptically harvested from the mice, and after weighing the ventricle, homogenized in phosphate-buffered saline (PBS, 1 ml). The homogenate was centrifuged at 4° C., 1,500 g for 15 min and the supernatant (0.1 ml) was inoculated to human amnion FL cell monolayer and cultured at 37° C. for 60 min in 5% CO2. The cells were overlaid with a medium (3 ml) containing 4% fetal calf serum and 1% methylcellulose. After culture under 5% CO2-containing humidified atmosphere at 37° C. for 20 hr, the cells were fixed with acetic acid-methanol (1:2) and stained with 1% crystal violet. The plaques were counted under an inverted microscope (Circulation. 89:846-851, 1994). When the plaques are too many to count, the supernatant is appropriately diluted with Dulbecco's modified Eagle's medium (DMEM) and subjected to a similar assay. […]\n(§2) The total protein concentration of each supernatant was measured by bicinchoninic acid (BCA) method, and the ratio of the cytokine concentration to the total protein concentration was calculated (J. Am. Coll. Cardiol. 33:1400-1407, 1999). […]"}, "IL-2": {"tested_on": "IL-2", "assay": "Intracardiac cytokine assay (ELISA), IL-2", "format": "in vivo, mouse", "settings": "heart ventricle at day 5; CsA 40 mg/kg/day, compound 1 10 mg/kg/day orally; mean ± SEM; control 12.79 ± 1.24", "protocol": "as §1, §2"}, "EMC virus [1]": {"tested_on": "EMC virus", "assay": "Intracardiac virus titer (plaque assay on human amnion FL cells)", "format": "in vivo, male DBA/2 mice", "settings": "CsA 40 mg/kg/day, compound 1 10 mg/kg/day orally for 5 days; heart at day 5; mean ± SEM; control 5.18 ± 2.73 × 10^6", "protocol": "Four-week-old male DBA/2 mice were divided into 3 groups and EMC virus (10 pfu) was intraperitoneally inoculated. After inoculation, distilled water (solvent, n=8) as a control, CsA (40 mg/kg/day, n=5), and compound 1 (10 mg/kg/day, n=7) were orally administered forcibly for 5 consecutive days using a probe. Five days later, the heart was aseptically harvested from the mice, and after weighing the ventricle, homogenized in phosphate-buffered saline (PBS, 1 ml). The homogenate was centrifuged at 4° C., 1,500 g for 15 min and the supernatant (0.1 ml) was inoculated to human amnion FL cell monolayer and cultured at 37° C. for 60 min in 5% CO2. The cells were overlaid with a medium (3 ml) containing 4% fetal calf serum and 1% methylcellulose. After culture under 5% CO2-containing humidified atmosphere at 37° C. for 20 hr, the cells were fixed with acetic acid-methanol (1:2) and stained with 1% crystal violet. The plaques were counted under an inverted microscope (Circulation. 89:846-851, 1994). When the plaques are too many to count, the supernatant is appropriately diluted with Dulbecco's modified Eagle's medium (DMEM) and subjected to a similar assay. The test was repeated and the mean was taken. The virus titer was expressed in pfu/g heart. The statistical analysis was conducted by one way ANOVA and Fisher's protected least significant difference test."}, "[2]": {"tested_on": "EMC (Encephalomyocarditis) virus", "assay": "Histopathological observation of the heart (Experimental Example 1)", "format": "in vivo, DBA/2 mice", "settings": "n=8, day 5, mean ± SEM; for necrosis of myocardial cell (score 0 to 4+): control 1.9 ± 0.2; for cellular infiltration (score 0 to 4+): control 2.0 ± 0.2", "protocol": "(§3) Four-week-old DBA/2 mice were divided into 3 groups and EMC (Encephalomyocarditis) virus (10 pfu) was intraperitoneally inoculated. After inoculation, distilled water (solvent, n=9) as a control, compound 1 (3 mg/kg/day, n=8), and compound 1 (10 mg/kg/day, n=8) were orally administered forcibly for 5 consecutive days using a probe. Five days later, the heart was removed, and, after fixing with formalin, subjected to hematoxylin-eosin staining, based on which heart necrosis and cellular infiltration were scored as follows. • 0; no lesion, • 1+; lesion in 25% or less of the heart, • 2+; lesion in more than 25% and not more than 50% of the heart • 3+; lesion in more than 50% and not more than 75% of the heart • 4+; lesion in more than 75% and not more than 100% of the heart Results"}, "[3]": {"tested_on": "EMC (Encephalomyocarditis) virus", "assay": "Survival rate, EMC viral myocarditis in mice (Experimental Example 1)", "format": "in vivo, DBA/2 mice", "settings": "EMC virus 10 pfu i.p., control 0%", "protocol": "Four-week-old DBA/2 mice were divided into 3 groups, and EMC (Encephalomyocarditis) virus (10 pfu) was intraperitoneally inoculated. After inoculation, distilled water (solvent, group A, n=11) as a control, compound 1 (1 mg/kg/day, group B, n=10), and compound 1 (3 mg/kg/day, group C, n=10) were orally administered forcibly for 14 consecutive days using a probe. The survival rate of each group after 14 days was compared by Kaplan-Meier method."}, "NO": {"tested_on": "NO", "assay": "Intracardiac nitric oxide (NO) assay (modified Griess method)", "format": "in vivo, mouse", "settings": "heart ventricle at day 5; CsA 40 mg/kg/day, compound 1 10 mg/kg/day orally; mean ± SEM; control 2.07 ± 0.20", "protocol": "as §1, with “After culture under 5% CO2-containing humidified atmosphere at 37° C. for 20 hr, the cells were fixed with acetic acid-methanol (1:2) and stained with 1% crystal violet.” left out, “1994).” for “1994). When the plaques are too many to count, the supernatant is appropriately diluted with Dulbecco's modified Eagle's medium (DMEM) and subjected to a similar assay.”\nThe intracardiac NO content was measured using the same supernatant as used for the cytokine assay according to a modified method of Griess method (J. Am. Coll. Cardiol. 33:1400-1407, 1999; Anal. Biochem. 224:502-508, 1995). […] Optical density at 540 nm was measured using a microplate reader. The nitrite concentration of each sample was calculated based on the standard product. […] The intracardiac NO content was determined by dividing each nitrite concentration by the total protein concentration of each supernatant and expressed in μM/mg total protein. […]"}, "IL-12": {"tested_on": "IL-12", "assay": "Intracardiac cytokine assay (ELISA), IL-12", "format": "in vivo, mouse", "settings": "heart ventricle at day 5; CsA 40 mg/kg/day, compound 1 10 mg/kg/day orally; mean ± SEM; control 71.76 ± 7.37", "protocol": "as §1, §2"}, "EMC virus [4]": {"tested_on": "EMC virus", "assay": "Histopathological observation of the heart (Experimental Example 2)", "format": "in vivo, male DBA/2 mice", "settings": "CsA 40 mg/kg/day, compound 1 10 mg/kg/day orally for 5 days, day 5, mean ± SEM", "protocol": "as §3\nFour-week-old male DBA/2 mice were divided into 3 groups and EMC virus (10 pfu) was intraperitoneally inoculated. […] Five days later, the heart was harvested, and, after fixing with formalin, subjected to hematoxylin-eosin staining, based on which heart necrosis and cellular infiltration were scored according to the criteria shown in Experimental Example 1.\nThe myocardial cell necrosis and cellular infiltration were independently scored by two observers and averaged. […]"}, "IFN-γ": {"tested_on": "IFN-γ", "assay": "Intracardiac cytokine assay (ELISA), IFN-γ", "format": "in vivo, mouse", "settings": "heart ventricle at day 5; CsA 40 mg/kg/day, compound 1 10 mg/kg/day orally; mean ± SEM; control 151.20 ± 15.66", "protocol": "as §1, §2"}, "EMC virus [5]": {"tested_on": "EMC virus", "assay": "Survival rate, EMC viral myocarditis in mice (Experimental Example 2)", "format": "in vivo, DBA/2 male mice", "settings": "compound 1 10 mg/kg/day orally for 14 days, n=22 (6 survived); control 0%", "protocol": "The effects on viral myocarditis of compound 1 and an immunosuppressant, cyclosporin A (hereinafter to be referred to as CsA), were compared. The compound 1 was dissolved in sterile distilled water and administered, and CsA was dissolved in olive oil and administered.\nFour-week-old DBA/2 male mice were divided into 3 groups, and EMC virus (10 pfu) was intraperitoneally inoculated. After inoculation, distilled water (solvent, control group, n=21), CsA (40 mg/kg/day, CsA group, n=9), and compound 1 (10 mg/kg/day, compound 1 group, n=22) were orally administered forcibly for 14 consecutive days using a probe. The survival rate of each group after 14 days was compared by Kaplan-Meier method."}},
  "note": "Counter-ions that a name gives are not always drawn.",
  "data": [
    {"smiles": "CCCCCCCCc1ccc(CCC(N)(CO)CO)cc1", "note": "[compound 1, 2-Amino-2-(2-(4-octylphenyl)ethyl)propane-1,3-diol hydrochloride]", "values": [
      {"measurement": "TNF-α", "setting": "TNF-α", "result": "3.72 ± 0.25", "unit": "ng/mg total protein"},
      {"measurement": "IL-2", "setting": "IL-2", "result": "6.06 ± 0.67", "unit": "ng/mg total protein"},
      {"measurement": "virus titer", "setting": "EMC virus [1]", "result": "1.23 ± 0.53 × 10^7 (NS) pfu/g heart"},
      {"measurement": "necrosis of myocardial cell (score 0 to 4+)", "setting": "[2]; 3 mg/kg/day orally for 5 days", "result": "1.7 ± 0.4"},
      {"measurement": "cellular infiltration (score 0 to 4+)", "setting": "[2]; 3 mg/kg/day orally for 5 days", "result": "1.6 ± 0.2"},
      {"measurement": "necrosis of myocardial cell (score 0 to 4+)", "setting": "[2]; 10 mg/kg/day orally for 5 days", "result": "1.0 ± 0.2"},
      {"measurement": "cellular infiltration (score 0 to 4+)", "setting": "[2]; 10 mg/kg/day orally for 5 days", "result": "1.1 ± 0.2"},
      {"measurement": "survival rate at day 14", "setting": "[3]; 1 mg/kg/day orally for 14 days (group B, n=10)", "result": 10, "unit": "%"},
      {"measurement": "survival rate at day 14", "setting": "[3]; 3 mg/kg/day orally for 14 days (group C, n=10), p<0.05", "result": 30, "unit": "%"},
      {"measurement": "NO content", "setting": "NO", "result": "1.91 ± 0.34", "unit": "μM/mg total protein"},
      {"measurement": "IL-12", "setting": "IL-12", "result": "46.00 ± 12.82", "unit": "pg/mg total protein"},
      {"measurement": "necrosis of myocardial cell (score 0 to 4+)", "setting": "EMC virus [4]; control 1.89 ± 0.23", "result": "1.00 ± 0.19"},
      {"measurement": "cellular infiltration (score 0 to 4+)", "setting": "EMC virus [4]; control 2.00 ± 0.19", "result": "1.06 ± 0.19"},
      {"measurement": "IFN-γ", "setting": "IFN-γ", "result": "108.86 ± 12.98", "unit": "pg/mg total protein"},
      {"measurement": "survival rate at day 14", "setting": "EMC virus [5]", "result": 27, "unit": "%"}
    ]}
  ]
}
